Results taken from publication PMC3388044, “Probing of Exosites Leads to Novel Inhibitor Scaffolds of HCV NS3/4A Proteinase” (PLoS ONE, 2012).

Legend:
furin = target: T1, furin (Homo sapiens, UniProt P09958); assay: Furin activity assay (cross-reactivity); format: biochemical; conditions: pyroglutamic acid-Arg-Thr-Lys-Arg-7-amino-4-methylcoumarin substrate
T1 construct: soluble C-terminally truncated human furin construct in Sf9 insect cells; made in house; host or cells: Sf9 insect cells (baculovirus)
T1 sequence (P09958 108-715 limits assumed): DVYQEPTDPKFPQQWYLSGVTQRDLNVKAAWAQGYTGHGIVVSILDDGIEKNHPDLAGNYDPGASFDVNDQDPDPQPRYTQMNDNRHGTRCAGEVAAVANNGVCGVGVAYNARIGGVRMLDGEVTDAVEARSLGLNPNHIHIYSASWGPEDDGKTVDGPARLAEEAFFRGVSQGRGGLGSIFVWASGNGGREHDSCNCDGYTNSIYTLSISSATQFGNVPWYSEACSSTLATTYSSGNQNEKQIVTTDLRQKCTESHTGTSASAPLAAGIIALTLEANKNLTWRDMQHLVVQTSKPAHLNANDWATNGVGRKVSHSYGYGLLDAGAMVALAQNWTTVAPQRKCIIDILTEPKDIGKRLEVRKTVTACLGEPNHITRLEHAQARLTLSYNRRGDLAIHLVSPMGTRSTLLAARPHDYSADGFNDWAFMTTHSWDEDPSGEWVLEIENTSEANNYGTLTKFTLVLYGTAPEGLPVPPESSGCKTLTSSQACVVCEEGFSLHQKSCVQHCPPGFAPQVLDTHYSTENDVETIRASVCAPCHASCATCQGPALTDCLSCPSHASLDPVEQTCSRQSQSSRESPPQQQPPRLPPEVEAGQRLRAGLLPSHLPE
Excerpt: (§1) Reagents were purchased from Sigma unless indicated otherwise. The FRET substrate Ac-DE-D(Edans)-EE-Abu-ψ-[COO]-AS-K(Dabsyl)-NH2, purified recombinant wild-type NS3/4A from HCV genotype 1b, strain HC-J4, and the mutants with the V36M, R155K, A156T, D168A and V170A resistance mutations were from AnaSpec (Fremont, CA). The NS3/4A construct represented the individual NS3 proteinase domain N-terminally fused with an NS4A co-factor and tagged with a 6xHis tag. NS3/4A was in active form and the pre-activation by pep-4A or pep4AK was not necessary. Pyroglutamic acid-Arg-Thr-Lys-Arg-7-amino-4-methylcoumarin was from Peptides International (Louisville, KY). West Nile virus NS2B-NS3 proteinase (strain NY99) was expressed, purified and refolded to restore its functional activity as described earlier. The pET15b-Den2-CF40-Gly-NS3pro 185 plasmid encoding the Dengue virus type 2 NS2B-NS3 protease was a kind gift of Dr. Subhash Vasudevan (Program in Emerging Infectious Diseases, DUKE-NUS Graduate Medical School, Singapore). DV NS2B-NS3 proteinase was expressed purified and refolded to restore its functional activity as described previously, [70]. The expression of the soluble C-terminally truncated human furin construct in Sf9 insect cells (an ovarian cell line from fall armyworm Spodoptera frugiperda; Invitrogen, Carlsbad, CA) infected with the recombinant baculovirus and purification of soluble furin from the medium were described earlier. Original human hepatocarcinoma Huh7 cells were obtained from ATCC (Manassas, VA).
The activity of furin and both WNV and DV2 NS2B-NS3 proteinases (10 nM each) was measured in triplicate in 0.2 ml 20 mM Tris-HCl buffer, pH 8.0, containing 20% glycerol and 0.005% Brij 35 (for furin – 100 mM HEPES, pH 7.5, containing 1 mM CaCl2, 1 mM β-mercaptoethanol and 0.005% Brij 35) and pyroglutamic acid-Arg-Thr-Lys-Arg-7-amino-4-methylcoumarin (10 µM) as a substrate (λex = 360 nm; λem = 465 nm) as described earlier.
(§2) To measure the inhibitory potency of the compounds, their increasing concentrations were pre-incubated with the individual proteinases in the corresponding buffer for 30 min at ambient temperature. At least, 7–9 different concentrations were used for each inhibitor. The residual activity of the enzymes was then measured as above. The IC50 values of the inhibitory compounds were calculated by determining the concentrations of the compounds needed to inhibit 50% of the enzyme activity against the peptide substrate. GraphPad Prism was used as fitting software.

[1] = tested on: sub-genomic HCV RNA replicon; assay: HCV replicon inhibition assay, luciferase reporter in Huh7 ET cells; format: cell-based; conditions: 72 h; for IC50: concentration reducing viral replication by 50%; for IC90: concentration reducing viral replication by 90%
Procedure: To support our in vitro data, the inhibition of HCV RNA replication was then measured using human hepatocarcinoma Huh7 ET cells. These cells express a sub-genomic HCV RNA replicon with a stable luciferase reporter. The replicon contains the 5′-end Internal Ribosome Entry Site (IRES) of HCV which drives the production of a firefly luciferase, ubiquitin, and neomycin phosphotransferase (Neo) fusion protein. Ubiquitin cleavage releases the luciferase and Neo proteins. The IRES element encephalomyocarditis virus controls the translation of the HCV […] proteins NS3-NS5 in the replicon. The NS3 protein cleaves the synthesized HCV polyprotein to release the mature NS3, NS4A, NS4B, NS5A and NS5B proteins that are required for HCV replication. The authentic 3′-end non-translating region of HCV is localized at the 3′-end of the replicon. As a result, the activity of the luciferase reporter is directly proportional to HCV RNA levels and positive control antiviral compounds behave comparably using either luciferase or RNA endpoints.
Human interferon α2b was used as a control.

NS3/4A V170A = assay: NS3/4A activity assay, V170A mutant; format: biochemical, HCV genotype 1b, strain HC-J4; conditions: for NS3/4A V170A FC: fold change in IC50 for the mutant compared to WT; for IC50: recombinant V170A mutant, FRET peptide substrate
Excerpt: as §1, with “NS3/4A was in active form and the pre-activation by pep-4A or pep4AK was not necessary.” left out
The NS3/4A activity assay was performed at 37°C in triplicate in wells of a 96-well plate in 0.2 ml 50 mM HEPES, pH 7.5, containing 100 mM NaCl, 10 mM DTT, 20% glycerol, the Ac-DE-D(Edans)-EE-Abu-ψ-[COO]-AS-K(Dabsyl)-NH2 substrate (10 µM) and the NS3/4A enzyme (10 nM). Reaction velocity was monitored continuously at λex = 355 nm and λem = 500 nm for 10 min using a Spectramax Gemini EM fluorescence spectrophotometer (Molecular Devices, Sunnyvale, CA) and the initial rate of reaction v was recorded for each reaction. […] Compound stock solutions (10 mM) were made in 100% DMSO. Stocks were then diluted using the assay buffer. As a result, the final DMSO concentration was always below 1% in the assay reactions.
as §2

| SMILES | IC50 (furin) [µM] | IC50 [1] [µM] | IC90 [1] [µM] | NS3/4A V170A FC (NS3/4A V170A) | IC50 (NS3/4A V170A) [µM] |
| --- | --- | --- | --- | --- | --- |
| O=C(Nc1ccccc1)c1cc(S(=O)(=O)Nc2nc3ncccc3[nH]2)c(SSc2cc(Cl)c(C(=O)Nc3ccccc3)cc2S(=O)(=O)Nc2nc3ncccc3[nH]2)cc1Cl [Compound 1] | > 100 | > 100 | > 100 | 2.2 | 0.4 |
| Clc1ccc(OCc2nn3c(CCc4nnc5sc(COc6ccc(Cl)cc6)nn45)nnc3s2)cc1 [Compound 2] | > 100 | 10 | 25.2 | 6 | 1.8 |
| Cc1n[nH]c(=S)n1Nc1nc(SCc2ccccc2)nc2n[nH]c(Cc3nn[nH]n3)c12 [Compound 3] | > 100 | > 100 | > 100 | 5.5 | 1.97 |
| Oc1ccccc1-c1nnc2sc3c(Cl)c4nn5c(-c6ccccc6O)nnc5sc4c(Cl)c3nn12 [Compound 4] | 12.8 | 28 | 99.4 | 2.2 | 0.8 |
| Clc1ccc(Nc2nc(SCc3ccccc3)nc3n[nH]c(Cc4nc5ccccc5s4)c23)cc1 [Compound 5] | > 100 | > 100 | > 100 | 16.6 | 6.29 |
| S=c1[nH]nc(Nc2nc(SCc3ccccc3)nc3n[nH]c(Cc4nn[nH]n4)c23)s1 [Compound 6] | 66.8 | > 100 | > 100 | 0.98 | 0.93 |
| S=c1[nH]n2c(COc3cc(Cl)c(OCc4nnc5sc(=S)[nH]n45)cc3Cl)nnc2s1 [Compound 7] | > 100 | 9.95 | 54.4 | 1.2 | 1.52 |
| COc1cc(C2C(C(=O)Nc3ccc(Cl)c(Cl)c3)=C(C)NC(C)=C2C(=O)Nc2ccc(Cl)c(Cl)c2)ccc1O [Compound 8] | 27 | 13.6 | 19.2 | 1.5 | 2.92 |
